Assay: in vitro
Settings: human, hela cells, % viability

SMILES | viability at 28.5 h, 10 µM | viability at 28.5 h, 10 µM (bulk resorufin, single well)
Cc1nc2ccccc2c(=O)n1Cc1cccnc1 [CBK288092] | 94.3% | –
CC(Nc1ncnc2c1cnn2C)c1ccccc1 (stereo not drawn) [CBK288093] | 106% | –
Fc1ccc(C2C=C(c3ccc(F)cc3F)Nc3ncnn32)cc1 (stereo not drawn) [CBK288095] | 99.7% | –
CC(C)c1ccc(-n2ncc3c(=O)[nH]cnc32)cc1 [CBK288096] | 70.7% | –
Cc1ccc(Nc2nc(N(C)C)nc3[nH]ncc23)cc1 [CBK288098] | 108% | –
CSc1ccccc1Nc1ncnc2n[nH]cc12 [CBK288099] | 114% | –
Cc1ccc(-n2cc(-c3ccccc3)[nH]c2=O)cc1 [CBK288103] | 101% | –
CCOc1ccc(-c2nc(N)ncc2Oc2ccc(OC)cc2)c(O)c1 [CBK288105] | 101% | –
CCOc1ccc(-c2n[nH]c(C)c2-c2ccc(OC)c(OC)c2)c(O)c1 [CBK288106] | 102% | –
CN(C(=O)c1ccc(-n2nncc2-c2ccccc2)cc1)c1ccccc1 [CBK288107] | 108% | –
COc1cccc(-c2cc(C(=O)N3CCC(C)CC3)n[nH]2)c1 [CBK288109] | 94.3% | –
CCOc1ccc(-c2ncncc2-c2ccccc2)c(O)c1 [CBK288111] | 86.4% | –
COc1ccc(-c2cn[nH]c2-c2ccc(OCCN3CCOCC3)cc2O)cc1 [CBK288112] | 97% | –
COc1ccc(-c2cc(C(=O)Nc3c(C)cccc3C)n[nH]2)c(OC)c1 [CBK288114] | 107% | –
Nc1nn2c(-c3cccc(Cl)c3)nnc2s1 [CBK288122] | 73.2% | –
O=c1ccnc(SCc2cccc(Cl)c2)[nH]1 [CBK288123] | 100% | –
O=C1Nc2cc(C(F)(F)F)ccc2N2CCCC12 (stereo not drawn) [CBK288125] | 99.7% | –
CNC(=O)c1cnc2sc3c(n2c1=O)CCCC3 [CBK288126] | 102% | –
CCOc1cccc(CNc2nn[nH]n2)c1OCc1ccc(C)cc1 [CBK288127] | 110% | –
CCCn1nnnc1NCc1cccc(Cl)c1 [CBK288130] | 98.7% | –
C=CCn1nnc(NC(=O)COc2ccccc2)n1 [CBK288131] | 108% | –
COc1ccccc1CNC(=O)c1ccc(=O)[nH]c1 [CBK288133] | 106% | –
Cc1cc(C)nc(-n2ncc(C#N)c2NC(=O)c2ccccc2)n1 [CBK288135] | 111% | –
Cn1c(=O)[nH]c(=O)c2c(-c3ccccc3)ccnc21 [CBK288136] | 72% | –
Cc1ccc(-c2nc3ccccc3c(=O)o2)cc1C [CBK288137] | 97.4% | –

SMILES | viability at 28.5 h, 10 µM | viability at 28.5 h, 10 µM (bulk resorufin, single well)
Cc1ccccc1N1CC(C(=O)Nc2cccnc2)CC1=O (stereo not drawn) [CBK288138] | 88.3% | –
Nc1ncnc(N(c2ccccc2)c2ccccc2)n1 [CBK288139] | 104% | –
CCCc1cc(=O)[nH]c(Nc2ccc(OCC)cc2)n1 [CBK288140] | 112% | –
Cc1ccc(Cc2nc(-c3cccnc3)no2)cc1 [CBK288141] | 94.3% | –
Cc1cccc(/N=C(\N)Nc2nc(=O)cc(C)[nH]2)c1 [CBK288144] | 93.1% | –
COc1ccc(-n2cnc3ccccc3c2=O)cc1 [CBK288145] | 94.4% | –
Cc1ccc(C2C3=C(CC(C)(C)CC3=O)Nc3[nH][nH]c(=O)c32)o1 (stereo not drawn) [CBK288147] | 104% | –
O=C(COc1ccc2c(c1)OCO2)Nc1ccccn1 [CBK288148] | 86.6% | –
O=C(Nc1ccccc1C(=O)c1ccccc1)c1ccccn1 [CBK288150] | 89.1% | –
CCC(Oc1ccccc1)C(=O)Nc1cc(C)on1 (stereo not drawn) [CBK288152] | 101% | –
COc1ccc(Nc2nc(N)nc(CN3CC(C)CC(C)C3)n2)cc1 (stereo not drawn) [CBK288154] | 99.2% | –
CCCCCc1nnc(Nc2nc(C)cc(C)n2)[nH]1 [CBK288155] | 95.4% | –
Cc1ccc(-c2cc(C(=O)Nc3cccnc3)[nH]n2)c(O)c1C [CBK288158] | 93.3% | –
Cc1oc2ncn(Cc3ccccc3)c(=N)c2c1C [CBK288160] | 94.4% | –
COc1ccc(Nc2ncnc3c2c(C)c(C)n3CCO)cc1 [CBK288161] | 102% | –
COc1ccc(Nc2ncnc3oc(C)c(C)c23)cc1 [CBK288163] | 93.3% | –
Cc1cc(C)nc(NC(=O)c2cccc(Cl)c2)n1 [CBK288165] | 90% | –
Cc1ccc(C2CC(=O)c3cnc(N)nc3C2)cc1 (stereo not drawn) [CBK288166] | 92% | –
Cc1cc(C)nc(Nc2n[nH]c(-c3ccccc3Cl)n2)n1 [CBK288167] | 98.2% | –
Nc1n[nH]c2nc(-c3ccccc3)c3c(c12)CCC3 [CBK288178] | 88.8% | –
COc1cc2c(=O)n(C)c3nncn3c2cc1OC [CBK288182] | 98.1% | –
Nc1nc(COc2ccc(F)cc2)nc(N2CCOCC2)n1 [CBK288183] | 91.5% | –
C=C(C)Cn1c(=O)c2c(nc3[nH]c(C)c(C)n32)n(C)c1=O [CBK288184] | 102% | –
Cc1cc(C)n(C(=O)c2cn3cc(Cl)ccc3n2)n1 [CBK288185] | 98.6% | –
COc1ccc(-c2c(C)nc(N)nc2-c2ccc(OC)cc2O)cc1 [CBK288186] | 85.7% | –

SMILES | viability at 28.5 h, 10 µM | viability at 28.5 h, 10 µM (bulk resorufin, single well)
Cc1cc(C)c2c(N)c(-c3ccncc3)sc2n1 [CBK288189] | 88.7% | –
Cc1sc2ncn(CCC(=O)O)c(=O)c2c1C [CBK288191] | 115% | –
c1ccc(COc2ccc(-n3cnnn3)cc2)nc1 [CBK288196] | 83.5% | –
Fc1cccc(COc2nc3ccccc3n3nnnc23)c1 [CBK288198] | 114% | –
Cc1ccc(-c2c(N3C(=O)c4cccnc4C3=O)n[nH]c2C)cc1 [CBK288199] | 101% | –
CC(=O)Nc1nc2[nH]c(C)c(Cc3ccccc3)c(=O)n2n1 [CBK288202] | 89% | –
CC(C)(C)C(=O)/N=c1/[nH]nc(-c2cccnc2)s1 [CBK288203] | 98.3% | –
Cc1ccc(C(=O)N2CCn3c2nc2ccccc23)cc1 [CBK288204] | 108% | –
COc1cc2c(c(OC)c1OC)C(c1ccccc1C)CC(=O)N2 (stereo not drawn) [CBK288205] | 109% | –
CC(Oc1ccc(Cl)cc1)C(=O)Nc1ncccn1 (stereo not drawn) [CBK288206] | 96.5% | –
Cc1noc2nc(-c3cccnc3)cc(C(=O)O)c12 [CBK288207] | 92.4% | –
O=C(CC12CC3CC(CC(C3)C1)C2)Nc1nc[nH]n1 [CBK288208] | 117% | –
CC(C)c1cc2c(s1)NC(c1ccccc1)NC2=O (stereo not drawn) [CBK288209] | 92.9% | –
O=C(Nc1nc2ccccc2[nH]1)NC1CCCCC1 [CBK288210] | 86.1% | –
O=C(CSc1ccccc1)Nc1nccs1 [CBK288213] | 109% | –
CCn1nc(C)c(C2NC(=O)c3ccccc3N2)c1C (stereo not drawn) [CBK288214] | 88.6% | –
CCOc1cc(C)c(-c2cc(N)[nH]n2)cc1OCC [CBK288216] | 85.9% | –
Cc1ccccc1NC(=O)c1cnn2cccnc12 [CBK288217] | 90.3% | –
Cc1ccnc(SCC(=O)N2CCc3ccccc3C2)n1 [CBK288218] | 91.7% | –
Cc1nc2n(n1)C(C(=O)Nc1ccc(C)c(C)c1)CC(=O)N2 (stereo not drawn) [CBK288223] | 105% | –
COc1ccc(CCC(=O)Nc2ncn(Cc3cccc(C)c3)n2)cc1 [CBK288227] | 91.7% | –
O=C(O)c1ccc(-n2ncc3ccccc3c2=O)cc1 [CBK288229] | 111% | –
Cc1nc2n(n1)C(c1ccccn1)C1=C(CC(C)CC1=O)N2 (stereo not drawn) [CBK288230] | 82.9% | –
COc1ccc(-c2c(-c3ccc(F)cc3)[nH]c3[nH]c(=O)[nH]c(=O)c23)cc1 [CBK288232] | 111% | –
COc1ccc(CCNC(=O)c2ccn[nH]2)cc1OC [CBK288234] | 92.2% | –

SMILES | viability at 28.5 h, 10 µM | viability at 28.5 h, 10 µM (bulk resorufin, single well)
O=C(Nc1cccc(Cl)c1Cl)c1cnccn1 [CBK288243] | 105% | –
CCc1noc(C)c1C(=O)Nc1ncc(C)s1 [CBK288244] | 95.4% | –
O=C(Nc1cccnc1)c1ccc(F)cc1Cl [CBK288246] | 89.9% | –
COc1ccccc1N1CCN(C(=O)c2c(Cl)cnn2C)CC1 [CBK288247] | 94.3% | –
COc1ccc(C(C)(C)C)cc1NC(=O)c1ccncc1 [CBK288248] | 92% | –
Cc1cnc(NC(=O)Cc2ccc(F)cc2)s1 [CBK288249] | 99.9% | –
Cc1ccc(OC(C)C(=O)Nc2cc(C(C)(C)C)on2)cc1C (stereo not drawn) [CBK288251] | 107% | –
O=c1c2ccccc2n2c(=O)[nH]nc2n1-c1ccccc1 [CBK288352] | 104% | –
COc1cc2c(cc1OC)C1=NNC(=O)C1=NC(C)(C)C2 [CBK288353] | 22.3% | –
COc1ccc(-c2cc(=O)[nH]c(=S)s2)cc1 [CBK288355] | 90.5% | –
CSc1ccc(-c2nc(C)c(C(C)=O)n2O)cc1 [CBK288356] | 92.5% | –
CCCCC(=O)NCCc1ccc(S(N)(=O)=O)cc1 [CBK288360] | 91.5% | –
O=c1c(O)c(-c2ccc(F)cc2)oc2ccccc12 [CBK288369] | 72.4% | –
O/N=C1\CC(c2ccccc2)Oc2ccc(Cl)cc21 (stereo not drawn) [CBK288370] | 91.1% | –
COc1ccc(Cc2n[nH]c(=S)n2-c2cccnc2)cc1 [CBK288373] | 85.5% | –
CC(C)c1n[nH]c(=S)n1C1CCc2ccccc21 (stereo not drawn) [CBK288374] | 87.1% | –
CC(Oc1cc(Cl)ccc1Cl)c1nnc(S)n1C (stereo not drawn) [CBK288376] | 84.8% | –
CCC1(c2ccccc2)C(=O)NC(=O)N(CCN2CCOCC2)C1=O (stereo not drawn) [CBK288379] | – | 88%
Cc1cc(C)cc(Nc2cc(C)n3c(=O)[nH]nc3n2)c1 [CBK288380] | 91.8% | –
Cc1cc(=O)[nH]c2c1c(=O)[nH]n2C1CCCCCC1 [CBK288381] | 80.8% | –
FC(F)Oc1ccc(-c2ccnc(S)n2)cc1 [CBK288385] | 91.9% | –
O=c1c2ccccc2nc(S)n1CC(O)c1ccccc1 (stereo not drawn) [CBK288386] | 85.8% | –
Fc1ccc(C2NC(S)=NC3=C2N2CCC3CC2)cc1 (stereo not drawn) [CBK288390] | 95.4% | –
SC1=NC2(CCCC2)NN1c1ccc(Cl)cc1 [CBK288391] | 83.2% | –
